Measurements published in ChEMBL document CHEMBL1201862, “PubChem BioAssay data set” (2004).
The source made the active and inactive calls.

Columns and labels:
Estrogen receptor = biological target: T1, Estrogen receptor (Homo sapiens, UniProt P03372); assay: ERα coactivator recruitment enhancers – biochemical, TR-FRET, ERα LBD, dose response (AID 737)
T1 sequence (P03372 whole entry): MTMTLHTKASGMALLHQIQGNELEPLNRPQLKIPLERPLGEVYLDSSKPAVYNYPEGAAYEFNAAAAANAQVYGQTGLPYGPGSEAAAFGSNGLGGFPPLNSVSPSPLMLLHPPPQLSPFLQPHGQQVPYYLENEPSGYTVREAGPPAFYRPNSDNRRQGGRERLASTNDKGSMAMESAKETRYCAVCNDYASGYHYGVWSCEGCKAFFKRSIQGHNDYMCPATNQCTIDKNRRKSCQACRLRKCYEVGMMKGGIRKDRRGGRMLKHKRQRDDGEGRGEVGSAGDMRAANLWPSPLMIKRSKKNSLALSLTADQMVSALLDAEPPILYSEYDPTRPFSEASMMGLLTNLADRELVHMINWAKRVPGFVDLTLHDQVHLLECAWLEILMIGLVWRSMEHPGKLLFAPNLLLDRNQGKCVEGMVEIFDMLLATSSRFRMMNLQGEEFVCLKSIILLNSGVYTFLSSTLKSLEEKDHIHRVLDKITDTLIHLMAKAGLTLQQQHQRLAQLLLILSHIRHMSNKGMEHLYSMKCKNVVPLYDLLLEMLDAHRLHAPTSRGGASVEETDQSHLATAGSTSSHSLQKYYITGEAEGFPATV

NADPH oxidase 1 [1] = biological target: T2, NADPH oxidase 1 (Homo sapiens, UniProt Q9Y5S8); type: functional, cell-based
T2 sequence (Q9Y5S8 whole entry): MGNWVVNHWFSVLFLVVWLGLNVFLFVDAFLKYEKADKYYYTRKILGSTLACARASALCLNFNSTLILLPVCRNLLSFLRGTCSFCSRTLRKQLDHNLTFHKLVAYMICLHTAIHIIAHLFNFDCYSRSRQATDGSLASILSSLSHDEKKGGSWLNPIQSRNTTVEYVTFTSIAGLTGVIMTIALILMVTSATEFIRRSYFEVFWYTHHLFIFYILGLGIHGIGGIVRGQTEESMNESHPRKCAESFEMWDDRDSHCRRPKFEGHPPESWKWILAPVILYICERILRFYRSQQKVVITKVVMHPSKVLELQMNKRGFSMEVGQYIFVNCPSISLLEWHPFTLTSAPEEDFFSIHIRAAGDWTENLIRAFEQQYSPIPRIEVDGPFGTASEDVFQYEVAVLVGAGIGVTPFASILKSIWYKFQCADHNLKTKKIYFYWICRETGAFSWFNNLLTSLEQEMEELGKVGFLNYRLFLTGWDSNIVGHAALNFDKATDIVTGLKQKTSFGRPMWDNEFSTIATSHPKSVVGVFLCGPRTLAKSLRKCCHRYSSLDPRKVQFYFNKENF

HeLa = assay: Cytotoxicity counterscreen assay for transcriptional activators of heat shock protein 70 (Hsp70). [Related pubchem assays: 1203, 1252 ]; type: functional; conditions: Homo sapiens;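 also: cells exposed to compound for 16 hours before readout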
[2] = biological target: T3, Microphthalmia-associated transcription factor (Homo sapiens, UniProt O75030); assay: reducers of TRPM1 reporter luminescence, concentration series – cell-based, SK-MEL-5, cherry-picked, set 3, MITF inhibitor project, dose response (AID 493073); type: functional;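 also: SK-MEL-5 melanoma cells with luciferase driven by the MITF target TRPM1 promoter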
T3 sequence (O75030 whole entry): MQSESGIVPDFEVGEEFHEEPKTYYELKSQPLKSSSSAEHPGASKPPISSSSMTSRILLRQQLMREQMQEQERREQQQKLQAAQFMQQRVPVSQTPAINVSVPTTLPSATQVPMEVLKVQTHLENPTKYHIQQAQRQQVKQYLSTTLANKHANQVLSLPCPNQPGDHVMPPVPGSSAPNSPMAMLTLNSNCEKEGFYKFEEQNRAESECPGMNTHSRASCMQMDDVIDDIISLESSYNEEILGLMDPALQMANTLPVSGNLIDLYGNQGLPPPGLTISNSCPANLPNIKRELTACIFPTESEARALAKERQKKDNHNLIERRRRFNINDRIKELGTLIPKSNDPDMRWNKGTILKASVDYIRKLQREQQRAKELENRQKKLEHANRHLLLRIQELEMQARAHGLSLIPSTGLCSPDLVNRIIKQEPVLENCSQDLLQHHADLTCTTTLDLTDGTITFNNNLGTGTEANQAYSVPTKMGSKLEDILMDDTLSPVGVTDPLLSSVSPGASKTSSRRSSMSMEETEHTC

HEK293 [3] = assay: HEK293T cell viability loss, resazurin readout – resazurin fluorescence, cytotoxicity control for NF-kB activator project, SAR follow-up (AID 493251); type: functional, cell-based; conditions: Homo sapiens
Jurkat = assay: SAR Analysis of small molecule inhibitors of T-cell specific antigen receptor-induced NF-kB activation in a Jurkat cell line using a luminescence assay - Set 2. [Related pubchem assays (depositor defined):AID435003, AID435012, AID465]; type: functional, cell-based; conditions: Homo sapiens
HEK293 [4] = assay: SAR Analysis of small molecule inhibitors of T-cell specific antigen receptor-induced NF-kB activation in a HEK-293T cell line using a luminescence assay - Set 2. [Related pubchem assays (depositor defined):AID435003, AID435012, AID489026]; type: functional, cell-based; conditions: Homo sapiens
BJ [5] = assay: BJ-TERT fibroblast viability loss – cell-based, RAS-independent, luminescence, dose response (AID 1933); type: functional; conditions: Homo sapiens
BJ [6] = assay: cells; type: functional, cell-based; conditions: Homo sapiens
[7] = Luminescence-based dose response cell-based high throughput screening assay for cytotoxic compounds using the IEC-6 intestinal epithelial cell line. [Related pubchem assays: 1858 (Summary AID.), 1825 (Counterscreen.), 1907 (Confirmation screen.)]; type: functional
BJ [8] = assay: BJ-TERT-LT-ST fibroblast viability loss – cell-based, RAS-independent, luminescence, dose response (AID 1935); type: functional; conditions: Homo sapiens;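 also: BJ fibroblasts immortalized with TERT plus LT and ST oncogenes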
[9] = DRD fibroblast viability loss – cell-based, non-viral oncogenic, luminescence, dose response (AID 1934); type: functional; conditions: Homo sapiens
BJ [10] = assay: growth inhibition of engineered Ras-driven BJ cells – cell-based, alamar blue fluorescence, cherrypicked samples, dose response (AID 2631); type: functional; conditions: Homo sapiens;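 also: confirmatory dose-response assay in RAS-dependent BJ fibroblasts engineered with TERT, LT and ST, with cytotoxicity read by fluorescence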
NADPH oxidase 1 [11] = biological target: T2, NADPH oxidase 1; assay: Late-stage luminescence-based cell-based dose response assay to identify inhibitors of NADPH oxidase 1 (NOX1): Synthesized analogs.; type: functional
[12] = biological target: T4, Heat shock factor protein 1 (Mus musculus, UniProt P38532); assay: decrease of HSF1-responsive luciferase luminescence – cell-based, NIH3T3, dose retest, confirmation (AID 2382); type: functional;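 also: NIH3T3 fibroblasts with HSF1-driven luciferase reporter stressed by proteasome inhibitor MG132; luminescence from HSF1-driven luciferase expression after 8 hours of MG132 stress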
T4 sequence (P38532 whole entry): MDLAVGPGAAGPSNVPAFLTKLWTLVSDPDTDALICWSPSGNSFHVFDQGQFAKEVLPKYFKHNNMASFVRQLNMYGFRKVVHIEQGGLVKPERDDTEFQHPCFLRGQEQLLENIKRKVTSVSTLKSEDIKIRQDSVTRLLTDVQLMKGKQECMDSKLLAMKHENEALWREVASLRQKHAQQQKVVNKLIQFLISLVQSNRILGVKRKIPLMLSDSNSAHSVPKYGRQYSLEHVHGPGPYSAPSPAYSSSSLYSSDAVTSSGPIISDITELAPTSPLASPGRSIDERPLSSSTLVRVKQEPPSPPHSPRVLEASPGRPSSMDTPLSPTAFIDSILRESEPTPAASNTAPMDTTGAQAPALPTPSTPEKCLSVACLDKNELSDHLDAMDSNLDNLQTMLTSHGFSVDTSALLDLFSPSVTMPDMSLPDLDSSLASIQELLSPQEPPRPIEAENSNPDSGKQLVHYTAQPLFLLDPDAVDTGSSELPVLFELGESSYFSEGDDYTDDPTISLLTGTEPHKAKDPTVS

NADPH oxidase 1 [13] = biological target: T2, NADPH oxidase 1; assay: Luminescence-based cell-based dose response assay to identify inhibitors of NADPH oxidase 1 (NOX1).; type: functional
[14] = biological target: T5, Short transient receptor potential channel 4 (Mus musculus, UniProt Q9QUQ5); assay: block of DAMGO-driven TRPC4 calcium entry – cell-based, HEK293 TRPC4/mu-opioid, Fluo-4 calcium, dose response (AID 434942); type: functional;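 also: potency of inhibitors blocking the TRPC4 calcium response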
T5 sequence (Q9QUQ5 whole entry): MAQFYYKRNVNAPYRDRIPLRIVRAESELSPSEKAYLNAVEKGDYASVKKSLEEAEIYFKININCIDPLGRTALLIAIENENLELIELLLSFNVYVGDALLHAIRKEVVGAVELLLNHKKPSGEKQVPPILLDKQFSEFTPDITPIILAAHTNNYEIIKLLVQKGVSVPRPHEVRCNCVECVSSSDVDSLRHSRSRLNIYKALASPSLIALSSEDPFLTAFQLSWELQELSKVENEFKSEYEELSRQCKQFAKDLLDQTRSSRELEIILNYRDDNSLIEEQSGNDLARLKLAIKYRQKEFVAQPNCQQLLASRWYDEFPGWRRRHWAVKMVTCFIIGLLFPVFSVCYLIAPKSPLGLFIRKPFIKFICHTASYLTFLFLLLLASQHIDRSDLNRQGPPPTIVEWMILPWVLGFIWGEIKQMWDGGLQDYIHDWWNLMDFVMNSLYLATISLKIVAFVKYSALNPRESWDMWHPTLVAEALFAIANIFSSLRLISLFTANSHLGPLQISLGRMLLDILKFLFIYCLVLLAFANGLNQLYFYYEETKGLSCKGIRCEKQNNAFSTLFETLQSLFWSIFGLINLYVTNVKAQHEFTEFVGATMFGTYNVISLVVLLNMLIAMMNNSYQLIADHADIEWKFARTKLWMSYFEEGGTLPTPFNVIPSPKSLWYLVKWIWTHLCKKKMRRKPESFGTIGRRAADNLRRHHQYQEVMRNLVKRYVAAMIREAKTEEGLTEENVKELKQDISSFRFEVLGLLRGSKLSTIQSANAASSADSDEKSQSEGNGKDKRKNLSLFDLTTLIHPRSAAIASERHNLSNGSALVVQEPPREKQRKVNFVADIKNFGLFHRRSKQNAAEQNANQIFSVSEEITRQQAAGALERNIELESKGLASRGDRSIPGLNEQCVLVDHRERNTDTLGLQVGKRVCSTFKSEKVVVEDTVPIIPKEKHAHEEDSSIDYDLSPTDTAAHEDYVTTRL

[15] = test system: Streptococcus sp. 'group A'; assay: Streptococcus pyogenes SK(-)GAS viability under kanamycin – luminescence, BacTiterGlo, confirmation, counter-screen for streptokinase expression inhibitor project, dose response (AID 1900); type: functional, organism-based
Streptokinase A = biological target: T6, Streptokinase A (Streptococcus pyogenes serotype M1, UniProt P10520); assay: viability-normalized secreted streptokinase activity reduction – plasminogen activation absorbance, OD405, dose response (AID 1914); type: functional, Streptococcus pyogenes M1 GAS;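 also: secreted streptokinase activity via plasminogen activation per viability signal from cell pellet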
T6 sequence (P10520 whole entry): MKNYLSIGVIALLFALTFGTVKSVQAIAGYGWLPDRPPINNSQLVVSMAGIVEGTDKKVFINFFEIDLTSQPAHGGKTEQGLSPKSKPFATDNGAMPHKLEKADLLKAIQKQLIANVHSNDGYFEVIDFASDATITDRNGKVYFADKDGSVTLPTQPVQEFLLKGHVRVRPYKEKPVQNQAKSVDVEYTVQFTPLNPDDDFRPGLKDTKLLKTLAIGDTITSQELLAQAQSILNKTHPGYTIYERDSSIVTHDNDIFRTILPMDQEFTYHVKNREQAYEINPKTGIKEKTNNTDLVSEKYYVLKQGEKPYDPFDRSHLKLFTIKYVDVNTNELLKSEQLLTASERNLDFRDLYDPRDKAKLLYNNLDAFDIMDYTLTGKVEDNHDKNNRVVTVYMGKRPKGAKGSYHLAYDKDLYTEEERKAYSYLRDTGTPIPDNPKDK

[16] = biological target: Voltage-gated inwardly rectifying potassium channel KCNH2 (Homo sapiens, UniProt Q12809); assay: concentration-dependent hERG rescue from blockers – cell-based, thallium flux, dose response (AID 2121); type: ADME
Streptococcus = assay: GAS UMAA2166 growth inhibition – luminescence, BacTiterGlo, counter-screen for streptokinase expression inhibitor project, dose response (AID 1915); type: functional, organism-based;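 also: potency for reduction of bacterial viability or growth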
Estrogen receptor beta [17] = biological target: T7, Estrogen receptor beta (Homo sapiens, UniProt Q92731);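 also: recombinant ER-beta bound to coactivator SRC1 peptide in presence of estradiol agonist; inhibitors block coactivator peptide binding and lower the FRET signal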
Estrogen receptor beta [18] = biological target: T7, Estrogen receptor beta; assay: blockers of SRC-3 recruitment to ERβ – biochemical, ELISA, streptavidin-HRP readout, orthogonal assay, confirmation (AID 1060)
H9c2 = assay: cells; type: functional, cell-based; conditions: Rattus norvegicus, H9c2, Myocardium;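 also: confirmatory concentration-response retest of ultra-high-throughput screening hits for modulation of myocardial damage; cell death induced by hydrogen peroxide oxidative stress; compound pretreatment for 60 min then peroxide exposure for 2 h; potency is for protecting the cells against peroxide damage rather than for killing them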

T7 sequence (Q92731 whole entry): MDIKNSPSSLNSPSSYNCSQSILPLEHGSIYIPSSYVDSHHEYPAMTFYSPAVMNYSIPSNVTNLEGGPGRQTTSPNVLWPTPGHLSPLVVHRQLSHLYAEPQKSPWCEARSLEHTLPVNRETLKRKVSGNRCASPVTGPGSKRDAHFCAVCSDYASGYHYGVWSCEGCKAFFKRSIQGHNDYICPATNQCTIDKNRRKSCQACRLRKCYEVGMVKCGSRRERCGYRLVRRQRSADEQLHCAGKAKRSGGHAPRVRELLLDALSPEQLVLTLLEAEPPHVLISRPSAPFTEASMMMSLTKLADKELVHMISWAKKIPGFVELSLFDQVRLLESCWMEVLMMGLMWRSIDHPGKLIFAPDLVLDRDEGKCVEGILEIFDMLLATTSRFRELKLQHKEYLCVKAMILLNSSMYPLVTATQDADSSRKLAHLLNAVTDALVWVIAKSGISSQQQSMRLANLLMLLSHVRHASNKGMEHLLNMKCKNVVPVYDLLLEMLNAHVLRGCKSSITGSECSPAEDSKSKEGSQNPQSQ
Voltage-gated inwardly rectifying potassium channel KCNH2, sequence (Q12809 whole entry): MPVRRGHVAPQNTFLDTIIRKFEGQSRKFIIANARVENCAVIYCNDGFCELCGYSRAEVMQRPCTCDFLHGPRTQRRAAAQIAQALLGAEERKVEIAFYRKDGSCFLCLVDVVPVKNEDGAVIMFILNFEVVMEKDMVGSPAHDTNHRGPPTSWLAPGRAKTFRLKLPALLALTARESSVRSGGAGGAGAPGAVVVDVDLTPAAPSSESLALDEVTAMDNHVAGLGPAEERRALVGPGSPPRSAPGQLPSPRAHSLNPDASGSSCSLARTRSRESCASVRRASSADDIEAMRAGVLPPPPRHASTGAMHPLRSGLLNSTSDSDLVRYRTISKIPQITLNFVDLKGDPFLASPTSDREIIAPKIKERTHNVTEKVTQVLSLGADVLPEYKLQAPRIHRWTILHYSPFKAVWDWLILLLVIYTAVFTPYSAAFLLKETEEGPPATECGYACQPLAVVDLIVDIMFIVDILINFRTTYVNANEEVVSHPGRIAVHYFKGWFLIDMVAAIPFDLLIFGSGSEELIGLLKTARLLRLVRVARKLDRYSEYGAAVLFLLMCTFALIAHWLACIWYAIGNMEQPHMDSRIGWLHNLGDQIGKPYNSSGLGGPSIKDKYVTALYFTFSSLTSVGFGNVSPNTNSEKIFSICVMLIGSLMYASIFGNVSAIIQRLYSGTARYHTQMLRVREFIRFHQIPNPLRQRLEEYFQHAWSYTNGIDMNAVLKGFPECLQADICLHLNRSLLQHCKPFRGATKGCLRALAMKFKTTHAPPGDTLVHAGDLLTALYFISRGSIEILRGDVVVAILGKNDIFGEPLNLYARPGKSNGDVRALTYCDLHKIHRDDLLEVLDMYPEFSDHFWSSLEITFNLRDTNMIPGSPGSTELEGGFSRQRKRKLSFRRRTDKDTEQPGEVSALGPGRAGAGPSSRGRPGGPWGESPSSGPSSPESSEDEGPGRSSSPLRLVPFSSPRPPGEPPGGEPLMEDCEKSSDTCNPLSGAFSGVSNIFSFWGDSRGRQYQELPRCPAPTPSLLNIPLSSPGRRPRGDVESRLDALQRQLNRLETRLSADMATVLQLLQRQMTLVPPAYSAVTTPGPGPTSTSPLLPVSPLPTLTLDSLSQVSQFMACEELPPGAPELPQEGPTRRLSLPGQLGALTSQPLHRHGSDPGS

With O=C(c1cc2sccc2n1Cc1ccccc1)N1CCc2ccccc21 the EC50 (Estrogen receptor) was 23.4 µM (active).
With O=C(O)c1nc(Cl)c(Cl)c(N/N=C/c2ccccc2)c1Cl the IC50 (NADPH oxidase 1 [1]) was > 17 µM (not active).
For O=C(Nc1ccc(N2CCCC2)c(Cl)c1)c1ccc([N+](=O)[O-])o1, the CC50 (HeLa) was 5.12 µM (active), the AC50 [2] was 11.1 µM (active) and the IC50 (HEK293 [3]) was 42 µM (inactive). For the same molecule, the IC50 (Jurkat) was 17.8 µM (active) and the IC50 (HEK293 [4]) was 33.9 µM (inactive).
In the case of CC(C)(C)c1ccc(C(=O)Nc2ccc(C(=O)NCc3cccnc3)cc2)cc1, the EC50 (BJ [5]) is reported as 25.5 µM (active), the EC50 (BJ [6]) is reported as 0.515 µM (active) and the IC50 [7] is reported as 0.177 µM (active). The EC50 (BJ [8]) was 0.88 µM (inconclusive), the EC50 [9] was > 150 µM (not active) and the EC50 (BJ [10]) was 0.549 µM (active).
For CC(=O)c1ccc2c(c1)N(C)c1ccccc1S2, the IC50 (NADPH oxidase 1 [11]) was 2.36 µM (active), the EC50 [12] was > 195 µM (not active) and the IC50 (NADPH oxidase 1 [13]) was 1 µM (active). For the same molecule, the EC50 [14] was 7.5 µM (active).
For COc1ccc(N2CCN(C(=S)NC(=O)c3cccs3)CC2)c([N+](=O)[O-])c1, the EC50 [15] was 9.37 µM (active), the EC50 (Streptokinase A) was > 150 µM (not active) and the EC50 [16] was 12.2 µM (active). For the same molecule, the EC50 (Streptococcus) was 24.5 µM (active).
For COc1ccccc1N1CCN(C(=O)c2ccc3nc(-c4ccco4)c(-c4ccco4)nc3c2)CC1, the IC50 (Estrogen receptor beta [17]) was 5.96 µM (active), the IC50 (Estrogen receptor beta [18]) was 9.53 µM (not active) and the IC50 (H9c2) was 11.7 µM (active).
